According to patent US20250179057A1, “MEK IMMUNE ONCOLOGY INHIBITORS AND THERAPEUTIC USES THEREOF” (Immuneering Corporation, priority 2022, published 2025):
Converted amounts (≈) assume the structure as drawn. Read-outs that look alike come from different tables or passages of the source. Each block holds one compound with its values, some of them ahead of it.

Legend:
CYP2D6 = CYP2D6 (Homo sapiens, UniProt P10635); assay: CYP450 panel inhibition in human liver microsomes, 2D6 (dextromethorphan); details: control dose 1 μM, substrate dextromethorphan
CYP2D6, sequence (P10635 whole entry): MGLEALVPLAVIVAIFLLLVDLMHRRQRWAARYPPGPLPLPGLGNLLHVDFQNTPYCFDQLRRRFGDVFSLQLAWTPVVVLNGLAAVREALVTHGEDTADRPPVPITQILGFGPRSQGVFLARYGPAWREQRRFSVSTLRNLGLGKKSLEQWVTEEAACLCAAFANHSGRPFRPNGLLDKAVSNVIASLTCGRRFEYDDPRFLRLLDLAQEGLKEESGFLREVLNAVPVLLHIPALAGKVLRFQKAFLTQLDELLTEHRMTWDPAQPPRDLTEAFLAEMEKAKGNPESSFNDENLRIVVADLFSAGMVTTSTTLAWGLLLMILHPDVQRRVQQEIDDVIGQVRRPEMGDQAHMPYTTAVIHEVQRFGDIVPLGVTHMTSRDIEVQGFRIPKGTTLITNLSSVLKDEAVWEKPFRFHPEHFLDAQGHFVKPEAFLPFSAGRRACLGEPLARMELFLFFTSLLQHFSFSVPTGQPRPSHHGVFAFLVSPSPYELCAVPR

CYP2C9 = CYP2C9 (Homo sapiens, UniProt P11712); assay: CYP450 panel inhibition in human liver microsomes, 2C9 (diclofenac)
CYP2C9, sequence (P11712 whole entry): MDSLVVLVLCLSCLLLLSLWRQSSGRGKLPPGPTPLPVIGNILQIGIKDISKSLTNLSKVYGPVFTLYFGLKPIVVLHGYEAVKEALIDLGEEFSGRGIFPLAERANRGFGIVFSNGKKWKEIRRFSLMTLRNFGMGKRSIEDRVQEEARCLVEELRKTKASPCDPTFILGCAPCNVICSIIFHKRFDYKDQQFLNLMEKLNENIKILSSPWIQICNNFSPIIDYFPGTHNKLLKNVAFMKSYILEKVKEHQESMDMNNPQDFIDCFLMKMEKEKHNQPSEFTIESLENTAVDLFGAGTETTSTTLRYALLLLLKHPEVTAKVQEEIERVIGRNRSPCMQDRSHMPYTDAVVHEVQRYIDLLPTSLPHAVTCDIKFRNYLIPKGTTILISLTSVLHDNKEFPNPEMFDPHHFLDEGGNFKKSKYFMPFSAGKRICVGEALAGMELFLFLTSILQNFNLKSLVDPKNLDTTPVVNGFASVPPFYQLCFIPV
Source text: The quenched samples were stored refrigerated.

in vitro = details: human
[1] = Mouse pharmacokinetics (oral cassette dosing), plasma; type: in vivo; details: BALB/c immunocompetent mice, 5 mg/kg p.o.
Experimental: Female mice (BALC/c) received a single dose (3 mice/treatment) of vehicle (10% 1N HCl:90% [20% […]) and at 0.5, 1, 2, 4, 8, 12 and 24-hour post dose humanely euthanized.
Blood was obtained through cardiac puncture into K+EDTA tubes, mixed by inversion and centrifuged to obtain the plasma. Blood will be kept on ice or at approximately 4° C. prior. Centrifugation will take place within 30 minutes of blood collection affording plasma samples. Plasma samples will be frozen as soon as possible after centrifugation and stored at −80° C. until analysis. All samples will be analysed by means of LC-MS/MS. Method development for bioanalysis will be performed by pharmacokinetics Department of Crown Bioscience (Taicang) Inc. using LC-MS/MS analysis (using Waters HSS T3 2.1×50 mm (1.8 um) LC column, and an API-4000 Electrospray MS unit). The results of a kinetic solubility (free base) study are represented in Table 19.

[2] = system: phospho-ERK in A549 (KRAS G12S) cells; assay: Cell-based pERK (pERK:tERK) in A549 cells; details: for A549-pERK (10 nM, 2 h): phospho- to total protein ratio normalized to DMSO control (Table 9); for activity at 0.01 µM: Homo sapiens, A549, 2 h, read-out: A549-pERK (10 nM, 2 h); for pERK:tERK (10 nM 2 h A549): Phospho-ERK Screen in A549 (KRAS G12S), head 10 nM 2 h, title 10 μM for 2 hours
How it was run: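 Readout was pERK versus tERK by Western blot with IRDye-labelled secondary antibodies, imaged and quantified on a LI-COR Odyssey. Lysates were loaded at 1 mg/mL protein after Bradford estimation.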

[3] = Kinetic solubility (PBS pH 7.4; 4 hr); type: physicochemical; details: free base (Table 19), read-out: Kinetic Solubility
Experimental: The plates were shaken for 4 h at room temperature in an Eppendorf Thermomixer. After incubation, the plates were centrifuged for 20 minutes at 4680 rpm. From the supernatant, 150 μL was transferred to a new 96 well plate and 50 μL DMSO was added to ensure continued dissolution. Samples were measured on LC-UV at injection volumes of 1 and 8 μL. Peak areas were determined and compared to peak areas obtained using calibration curves of the test compounds in DMSO.

[4] = system: phospho-MEK in A549 cells; assay: Cell-based pMEK (pMEK:tMEK, CRAF bypass) in A549 cells; details: 2 h; for A549-pMEK 100 nM, 2 h: normalized to DMSO control (Table 13)
Experimental: Materials and Methods: A549 or A375 cells were seeded in 6-well plates at an appropriate seeding density on day 0. On day 2 or 3, after checking the health and confluency of cells, the media was aspirated and replaced with 1 mL media containing a predetermined concentration of compound and incubated for 2 hours. After 2 hours, the media was aspirated, and the cells washed 2 times with cold PBS. Cells were lysed on ice, with 50 uL 1×CST lysis buffer +1 mM PMSF for 5 minutes. After 5 minutes, cells were removed using a scraper and transferred to cold 1.5 mL tubes, and centrifuged for 10 min, 4° C., 14,000×g. Supernatant was gently removed and snap frozen in liquid nitrogen. Protein concentration of the lysate was determined using Bradford Reagent (analyzed using SpectraMax M2E) and diluted to 1 mg/mL or pERK or 1.5 mg/mL for pMEK analysis. […] All dilutions were in Milk-free antibody diluent.
(§1) A549 or […] cells were treated in duplicate for two hours with compounds at varying concentrations. After two hours, the cells were lysed, snap frozen, and stored at −80° C. After storage, the lysate was quantified with the Bradford assay. Before the lysates were prepared to run on the Jess, the lysates were diluted to 1 mg/mL for pERK analysis and 1.5 mg/mL pMEK analysis using quantitative Western blotting. ERK and MEK phosphorylation levels were estimated by taking the ratio of phospho-protein to total protein and normalizing to the DMSO control.
as §1

PAMPA (pH 7.4) = type: in vitro ADME; details: PAMPA; pH = 7.4 (Table 14)
Experimental: Each stock solution was diluted to 50 M in pH 7.4 Prisma HT buffer (pION) and 200 μl was added to each well of the donor plate in triplicate. The polyvinylidene fluoride (PVDF, 0.45 μm) filter membrane on the acceptor plate was coated with 5 μl gastrointestinal tract lipid formulation (GIT-0, pION) and to each well of the acceptor plate, 200 μl of acceptor sink buffer (pION) was added. The acceptor filter plate was then carefully placed on top of the donor plate to form a sandwich. The sandwich was incubated at 25° C. for 4 h without stirring. UV-vis spectra of the solutions in the blank, reference, acceptor and donor plates were measured using a microplate reader (Tecan Infinite 200PRO M Nano Plus). Permeability values were calculated using the PAMPA explorer software v.

hERG = hERG (Homo sapiens, UniProt Q12809); assay: cell-based
hERG, sequence (Q12809 whole entry): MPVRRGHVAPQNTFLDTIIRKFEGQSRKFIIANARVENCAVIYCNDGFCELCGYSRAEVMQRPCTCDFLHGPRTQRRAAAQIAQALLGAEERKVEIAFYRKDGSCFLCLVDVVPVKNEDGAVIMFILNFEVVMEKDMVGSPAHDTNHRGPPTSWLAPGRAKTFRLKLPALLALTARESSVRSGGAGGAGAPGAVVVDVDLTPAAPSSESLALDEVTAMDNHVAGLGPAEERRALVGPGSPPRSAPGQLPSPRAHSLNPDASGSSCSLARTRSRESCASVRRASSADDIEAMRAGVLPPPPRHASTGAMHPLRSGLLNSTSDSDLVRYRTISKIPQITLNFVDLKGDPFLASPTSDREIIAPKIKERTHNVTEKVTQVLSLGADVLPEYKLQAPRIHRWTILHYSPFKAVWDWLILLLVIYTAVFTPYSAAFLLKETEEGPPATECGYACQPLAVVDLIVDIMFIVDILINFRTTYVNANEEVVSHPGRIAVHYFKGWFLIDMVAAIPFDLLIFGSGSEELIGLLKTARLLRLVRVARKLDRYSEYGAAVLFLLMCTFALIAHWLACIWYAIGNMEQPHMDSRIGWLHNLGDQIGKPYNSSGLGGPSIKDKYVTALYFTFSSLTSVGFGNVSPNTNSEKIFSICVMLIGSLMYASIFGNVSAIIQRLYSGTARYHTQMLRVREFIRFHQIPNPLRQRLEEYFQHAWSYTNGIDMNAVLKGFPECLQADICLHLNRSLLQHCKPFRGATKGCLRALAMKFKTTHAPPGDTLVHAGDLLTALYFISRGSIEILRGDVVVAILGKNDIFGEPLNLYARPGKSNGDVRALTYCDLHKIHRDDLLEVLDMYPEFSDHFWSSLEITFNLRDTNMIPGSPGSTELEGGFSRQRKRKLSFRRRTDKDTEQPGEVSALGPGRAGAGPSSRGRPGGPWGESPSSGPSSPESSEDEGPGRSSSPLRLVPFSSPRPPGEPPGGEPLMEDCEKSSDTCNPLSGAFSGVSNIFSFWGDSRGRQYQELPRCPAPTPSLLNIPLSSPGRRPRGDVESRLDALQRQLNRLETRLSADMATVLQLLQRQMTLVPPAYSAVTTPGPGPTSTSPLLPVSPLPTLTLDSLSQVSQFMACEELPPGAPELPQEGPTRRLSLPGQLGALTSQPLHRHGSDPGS
Experimental: Materials and Methods: CHO cells (transformed with adenovirus 5 DNA; Stably transfected with full length hERG cDNA) were cultured in Ham's F-12 supplemented with 10% fetal bovine serum, 100 U/mL penicillin G sodium, 100 μg/mL streptomycin sulfate and 400 μg/mL Zeocin. Before testing, cells in culture dishes were rinsed with Hank's Balanced Salt Solution, detached with accutase.
HEPES-buffered intracellular solution (Charles River proprietary) for whole cell recordings was loaded into the intracellular compartment of the SP384PE. Extracellular buffer (HB-PS) and Cell suspension (in HB-PS) were pipetted into the extracellular compartment of the SP384PE chip. After establishment of a whole-cell configuration, membrane currents were recorded using patch clamp amplifier in the SP384PE system.
Test article (TA) concentrations (eight (8) concentrations of each test article were evaluated) were applied to naïve cells (n=4, where n=replicates/concentration). Each application consisted of addition of 40 μL of 2× concentrated test article solution to the total 80 μL of final volume of the extracellular well of the SP384PE chip. Duration of exposure to each compound concentration was five (5) minutes.
hERG current was measured using stimulus voltage patterns with fixed amplitudes: activation pre-pulse (TP1) to +40 mV for 2 s and test pulse (TP2) to −40 mV for 2 s from a holding potential of −80 mV. hERG current was measured as the outward peak current at TP2 (tail current). The stimulation was repeated with 0.1 Hz frequency during 2 min as baseline and 5 min after TA application.
Data acquisition and analyses were performed using the SP384PE system operation software. The decrease in current amplitude after TA application was used to calculate the percent block relative to control.
Tonic Block effect was calculated as:
[formula] • where ITP2, baseline and ITP2, TA were the outward peak K^+ currents elicited by the TP2 before application and 5 min after application of a test article, respectively.
The data were corrected for run-down:
[formula] • where % VC and % PC were the mean values of the current block with the vehicle and positive controls, respectively.
Concentration-response data were fitted to an equation of the following form:
[formula] • where [Test] was the concentration of test article, IC50 was the concentration of the test article producing half-maximal block, N was the Hill coefficient, % VC was the mean current block at the vehicle control and % Block was the percentage of ion channel current inhibited at each concentration of a test article. Nonlinear least squares fits were solved with the XLfit add-in for Excel (Microsoft, Redmond, WA).
In this study, hERG Ion channel block of IC50 values were determined. […] In brief, CHO cells were cultured in Ham's F-12 supplemented with 10% fetal bovine serum, 100 U/mL penicillin G sodium, 100 μg/mL streptomycin sulfate and 400 μg/mL Zeocin. Before testing, cells in culture dishes were rinsed with Hank's Balanced Salt Solution, detached with accutase. […] Test article (TA) concentrations were applied to naïve cells (n=4, where n=replicates/concentration). Each application consisted of addition of 40 μL of 2× concentrated test article solution to the total 80 μL of final volume of the extracellular well of the SP384PE chip. Duration of exposure to each compound concentration was five (5) minutes. hERG current was measured using stimulus voltage patterns with fixed amplitudes: activation pre-pulse (TP1) to +40 mV for 2 s and test pulse (TP2) to −40 mV for 2 s from a holding potential of −80 mV. hERG current was measured as the outward peak current at TP2 (tail current). The stimulation was repeated with 0.1 Hz frequency during 2 min as baseline and 5 min after TA application. Data acquisition and analyses were performed using the SP384PE system operation software.

[5] = female, mouse, read-out: AUC0-t
[6] = PBS buffer, pH 7.4, aqueous buffer, kinetic from dmso stock

Structure (SMILES): C=C[C@H]1C[N@@]2CC[C@H]1C[C@@H]2[C@@H](O)c1ccnc2ccc(OC)cc12 [Quinidine, reference compound]
CYP-2D6 (Dextromethorphan) mean percentage CYP inhibition, control (CYP2D6): 93.1%

Structure (SMILES): Nc1ccc(S(=O)(=O)Nc2ccnn2-c2ccccc2)cc1 [Sulfaphenazole, reference compound]
2C9* (Diclofenac) (CYP2C9; 10 μM, human liver microsomes, percent inhibition): 101.2
inhibition at 30 min, 10 µM (CYP2C9; human, microsomes, pH 7.4): 95.6%

A − B Permeability Ranking (Caco-2 cells): Higher
A-B Permeability Ranking (Caco-2 cells): High
efflux ratio at 2 h, 10 μM (in vitro; Caco-2, Mean (B-A/A-B) (Efflux Ratio)): 0.726
efflux ratio at 2 h, 10 μM (in vitro; Caco-2, Mean Efflux Ratio): 0.513
Papp A→B at 2 h, 10 μM (in vitro; Caco-2, Mean Papp A − B (10^−6 cm/s)): 405 nm/s
Papp A→B at 2 h, 10 μM (in vitro; Caco-2, Mean Papp A-B (10^-6 cm/s)): 366 nm/s
Papp B→A at 2 h, 10 μM (in vitro; Caco-2, Mean Papp B − A (10^−6 cm/s)): 208 nm/s
Papp B→A at 2 h, 10 μM (in vitro; Caco-2, Mean Papp B-A (10^-6 cm/s)): 266 nm/s
Structure (SMILES): CC(=O)CC(c1ccccc1)c1c(O)c2ccccc2oc1=O (centres unmarked) [Warfarin]

Structure (SMILES): CNS(=O)(=O)Nc1cccc(Cc2c(CN(C)C)c3cc(Cl)c(OC(=O)N(C)C)cc3oc2=O)c1F [Compound 24]
AUC(0-t) [1]: 0.8501 µg·h/mL
Cmax [1]: 0.4227 µg/mL
Tmax [1]: 60 min
A549-pERK (10 nM, 2 h) [2]: 42.4
solubility kinetic at 4 h [3]: 57 µM (≈ 30.8 µg/mL)
A549-CRAF BP 100 nM, 2 h ([4]; pMEK to total MEK normalized to DMSO control): 55.9 (mean, n = 2)

Structure (SMILES): CNS(=O)(=O)Nc1cccc(Cc2c(CN(C)CC(F)F)c3ccc(OC(=O)N(C)C)cc3oc2=O)c1F [Compound 242]
Papp at 4 h, 50 μM (PAMPA (pH 7.4)): 720 nm/s
activity at 0.01 µM [2]: 69.7%
A549-pMEK 100 nM, 2 h [4]: 33.2

Structure (SMILES): CNS(=O)(=O)Nc1cccc(Cc2c(CN3CCNCC3)c3cc(F)c(OC(=O)N(C)C)cc3oc2=O)c1Cl [Compound 254, 3-(2-chloro-3-((N-methylsulfamoyl)amino)benzyl)-6-fluoro-2-oxo-4-(piperazin-1-ylmethyl)-2H-chromen-7-yl dimethylcarbamate]
Papp at 4 h, 50 μM (PAMPA (pH 7.4)): 20 nm/s
activity at 0.01 µM [2]: 26.8%
pERK:tERK (10 nM 2 h A549) [2]: 27
IC50 (hERG): > 30 µM

Structure (SMILES): CCS(=O)(=O)Nc1cccc(Cc2c(CN3CCNCC3)c3cc(F)c(OC(=O)N(C)C)cc3oc2=O)c1Cl [Compound 255, 3-(2-chloro-3-(ethylsulfonamido)benzyl)-6-fluoro-2-oxo-4-(piperazin-1-ylmethyl)-2H-chromen-7-yl dimethylcarbamate]
Papp at 4 h, 50 μM (PAMPA (pH 7.4)): 50 nm/s
activity at 0.01 µM [2]: 37.1%
pERK:tERK (10 nM 2 h A549) [2]: 37
IC50 (hERG): 18.1 µM

Structure (SMILES): CNS(=O)(=O)Nc1cccc(Cc2c(CN(C)C)c3ccc(OC(=O)N(C)C)cc3oc2=O)c1Br [Compound 248]
AUC(0-inf) ([1]; female, mouse): 0.0283 µg·h/mL
half-life ([1]; female, mouse): 312 min
AUC(0-t) [1, 5]: 0.0195 µg·h/mL
Cmax ([1]; female, mouse, read-out: Cmax): 0.0083 µg/mL
Tmax ([1]; female, mouse, read-out: Tmax): 30 min
Papp at 4 h, 50 μM (PAMPA (pH 7.4)): 600 nm/s
activity at 0.01 µM [2]: 80.9%
pERK:tERK (10 nM 2 h A549) [2]: 81
solubility kinetic at 4 h [3, 6]: > 80 µM

Structure (SMILES): CN(C)C(=O)Oc1cc2oc(=O)c(Cc3cccc(NS(=O)(=O)CC(F)(F)F)c3F)c(CN3CCNCC3)c2cc1F [Compound 239]
Papp at 4 h, 50 μM (PAMPA (pH 7.4)): 8 nm/s
activity at 0.01 µM [2]: 96.1%

Structure (SMILES): CCN(C)Cc1c(Cc2cccc(NS(=O)(=O)CC(F)(F)F)c2F)c(=O)oc2cc(OC(=O)N(C)C)c(F)cc12 [Compound 237]
Papp at 4 h, 50 μM (PAMPA (pH 7.4)): 500 nm/s
activity at 0.01 µM [2]: 114%

Structure (SMILES): CNS(=O)(=O)Nc1cccc(Cc2c(CN(C)CCF)c3ccc(OC(=O)N(C)C)cc3oc2=O)c1F [Compound 240]
AUC(0-t) [1, 5]: 0.29 µg·h/mL
Cmax ([1]; female, mouse, read-out: Cmax): 0.865 µg/mL
Tmax ([1]; female, mouse, read-out: Tmax): 4.98 min
Papp at 4 h, 50 μM (PAMPA (pH 7.4)): 620 nm/s
activity at 0.01 µM [2]: 66%
solubility kinetic at 4 h [3, 6]: 67 µM (≈ 36.1 µg/mL)
A549-pMEK 100 nM, 2 h [4]: 34.2

Structure (SMILES): CNS(=O)(=O)Nc1cccc(Cc2c(CN(C)C)c3c(F)cc(OC(=O)N(C)C)cc3oc2=O)c1F [Compound 244, 4-((dimethylamino)methyl)-5-fluoro-3-(2-fluoro-3-((N-methylsulfamoyl)amino)benzyl)-2-oxo-2H-chromen-7-yl dimethylcarbamate]
Papp at 4 h, 50 μM (PAMPA (pH 7.4)): 80 nm/s
activity at 0.01 µM [2]: 44.7%
A549-pMEK 100 nM, 2 h [4]: 26.1

Structure (SMILES): CCN(C)Cc1c(Cc2cccc(NS(=O)(=O)CC)c2F)c(=O)oc2cc(OC(=O)N(C)C)c(Cl)cc12 [Compound 166]
AUC(0-t) [1]: 0.0118 µg·h/mL
Cmax [1]: 0.0091 µg/mL
Tmax [1]: 120 min
A549-pERK (10 nM, 2 h) [2]: 60.9
solubility kinetic at 4 h [3]: 80 µM (≈ 44.3 µg/mL)
